# What was measured:
# soybean looper larvae = test: Leaf dip efficacy and synergy test, soybean looper larvae; type: in vivo, Chrysodeixis includens; conditions: foliar, Bta/Btk 0.26 ppm, flubendiamide 3.9 ppm, alone or in mixture
# Excerpt: (§1) The following examples were used to determine the synergy of Bacillus thuringiensis subsp. aizawai, Bacillus thuringiensis subsp. kurstaki and flubendiamide when controlling diamondback moth, beet armyworm, sugarcane borer, soybean looper, corn earworm, cabbage looper, and southwestern corn borer. Sympatico™ emulsifiable suspension (available from Valent BioSciences LLC) was used as the source of Bacillus thuringiensis subsp. aizawai and Bacillus thuringiensis kurstaki. Sympatico™ contains about a 1:0.67 ratio of Bacillus thuringiensis subsp. kurstaki fermentation solids, spores and toxins to Bacillus thuringiensis subsp. aizawai fermentation solids, spores and toxins. Belt® was used as the source of flubendiamide. The present invention is not limited to the commercial products used in the examples. In each example below, the studies were conducted as follows.
# (§2) For these tests, standardized laboratory leaf dip methods were used to inoculate plant material with treatment(s). Dry, treated leaves were placed into Petri dishes (100×25 mm) containing filter paper wetted with 500 μl of distilled H2O (“dH2O”). Each dish was then infested with between 5 and 10 larvae, dependent on species. Efficacy ratings were taken at specified intervals. Synergy ratings were calculated for each test. […]
# cabbage looper larvae = test: Leaf dip efficacy and synergy test, cabbage looper larvae; type: in vivo; conditions: Trichoplusia ni, foliar, Bta/Btk 0.8125 ppm, flubendiamide 0.49 ppm, alone or in mixture
# Excerpt: as §1, §2
# corn earworm larvae = test: Leaf dip efficacy and synergy test, corn earworm larvae; type: in vivo; conditions: Helicoverpa zea, foliar, Bta/Btk 2.6 ppm, flubendiamide 0.975 ppm, alone or in mixture
# Excerpt: as §1, §2
# sugarcane borer larvae = test: Leaf dip efficacy and synergy test, sugarcane borer larvae; type: in vivo; conditions: Diatraea saccharalis, foliar, Bta/Btk 0.8125 ppm, flubendiamide 2.15 ppm, alone or in mixture
# Excerpt: as §1, §2
# [1] = system: southwestern corn borer larvae; test: Leaf dip efficacy and synergy test, southwestern corn borer larvae; type: in vivo; conditions: foliar, Bta/Btk 0.8125 ppm, flubendiamide 0.39 ppm, alone or in mixture
# Excerpt: as §1, §2
# beet armyworm larvae = test: Leaf dip efficacy and synergy test, beet armyworm larvae; type: in vivo; conditions: Spodoptera exigua, foliar, Bta/Btk 0.8125 ppm, flubendiamide 0.49 ppm, alone or in mixture
# Excerpt: as §1, §2
# diamondback moth larvae = test: Leaf dip efficacy and synergy test, diamondback moth larvae; type: in vivo; conditions: Plutella xylostella, foliar, Bta/Btk 0.8125 ppm, flubendiamide 0.215 ppm, alone or in mixture
# Excerpt: as §1, with “In each example below, the studies were conducted as follows.” left out
# For these tests, standardized laboratory leaf dip methods were used to inoculate plant material with treatment(s). […] Synergy ratings were calculated for each test. […]
# In order to determine synergy, rates below normal field rate ranges must be used. If normal field rate ranges are used, all of the larvae would die (combining a lethal or near lethal dose of Bacillus thuringiensis subsp. aizawai and Bacillus thuringiensis subsp. kurstaki with a lethal dose of flubendiamide would most likely lead to larvae death) in every treatment and synergy would not be able to be determined. […]
smiles,measurement,setting,value
"Cc1cc(C(F)(C(F)(F)F)C(F)(F)F)ccc1NC(=O)c1cccc(I)c1C(=O)NC(C)(C)CS(C)(=O)=O [Flubendiamide, 3-iodo-N′-(2-mesyl-1,1-dimethylethyl)-N-{4-[1,2,2,2-tetrafluoro-1-(trifluoromethyl)ethyl]-o-tolyl}phthalamide]",Emax at 3.9 ppm,soybean looper larvae; 24 h after treatment,13%
same,Emax at 3.9 ppm,soybean looper larvae; 48 h after treatment,38%
same,Emax at 0.49 ppm,cabbage looper larvae; 24 h after treatment,9%
same,Emax at 0.49 ppm,cabbage looper larvae; 48 h after treatment,65%
same,Emax at 0.975 ppm,corn earworm larvae; 24 h after treatment,33%
same,Emax at 0.975 ppm,corn earworm larvae; 48 h after treatment,33%
same,Emax at 2.15 ppm,sugarcane borer larvae; 24 h after treatment,24%
same,Emax at 2.15 ppm,sugarcane borer larvae; 48 h after treatment,33%
same,Emax at 0.39 ppm,[1]; 24 h after treatment,49%
same,Emax at 0.39 ppm,[1]; 48 h after treatment,51%
same,Emax at 0.49 ppm,beet armyworm larvae; 24 h after treatment,10%
same,Emax at 0.49 ppm,beet armyworm larvae; 48 h after treatment,23%
same,Emax at 0.215 ppm,diamondback moth larvae; 24 h after treatment,4%
same,Emax at 0.215 ppm,diamondback moth larvae; 48 h after treatment,42%

# From patent US20170311607A1, “SYNERGISTIC BACILLUS THURINGIENSIS SUBSP. AIZAWAI, BACILLUS THURINGIENSIS SUBSP. KURSTAKI AND FLUBENDIAMIDE MIXTURES FOR DIAMONDBACK MOTH, SUGARCANE BORER, SOYBEAN LOOPER, AND CORN EARWORM” (Valent BioSciences LLC, priority 2016, published 2017)
